Like-named read-outs stand apart in the source and are kept apart here.

Here are results for seven compounds from patent US10961242B2, “Compounds as autotaxin inhibitors and pharmaceutical compositions comprising the same” (LegoChem Biosciences, Inc., priority 2018, dated 2021).

For data set [1], the target named is human ENPP2 (Homo sapiens (Human), UniProt Q13822). The data set is described as follows: Inhibitory activity on human ENPP2 (FS-3 assay). The class given is biochemical. The procedure:
Two-fold dilution of each test compound solution (10 μM, 100% dimethyl sulfoxide) is carried out on 96-well V bottom plate (Costar 3363). After ten-fold dilution of each the test compound solution (100% dimethyl sulfoxide) with deionized distilled water, 10 μL of the diluted each mpound solution (10% dimethyl sulfoxide) was aliquoted to a black flat bottom 96-well plate (Costar 3915).

For data set [2], the system named is LPA production in blood serum caused by autotoxin. The data set is described as follows: Inhibitory activity on LPA production in mouse blood serum. Format: biochemical. The following applies: mouse blood serum (m), 18:1 LPC, 3 hours at 37° C. The procedure: (§1) After 100-fold dilution of each test compound solution (5 μL) (10 mM, 100%, dimethyl sulfoxide) with 495 μL of methanol, 3 μL of the diluted methanol solution (1% dimethyl sulfoxide) was mixed with 57 μL of human or mouse blood serum solution in a 1.5 mL tube. […] Subsequently, a solution prepared by diluting 10 mg/mL 18:1 LPC solution (50% ethanol) with blood serum to have concentration of 375 μg/mL was aliquoted in an amount of 2 μL to each tube so as to have 50 μL. Each tube was kept for 3 hours in a water bath at 37° C. to allow a reaction. To the tube obtained after the reaction, 100 μL of 0.5 μM 17:0 LPA solution (chloroform/methanol/water=65/35/8) was aliquoted and mixed therein. Centrifuge was carried out for 10 minutes using a centrifuge at conditions of 14,000 rpm and 4° C. 100 μL of 50% methanol solution is aliquoted first to a 96-well polypropylene plate (Agilent Technology 5042-1385), and the supernatant (50 μL) in a tube after the centrifuge was carefully transferred to the plate followed by mixing. After covering it with Well cap (Thermo 276011), analysis was carried out by LC-MS/MS (Agilent 1260).
(§2) In the following Table 3, the mouse blood serum was described as (m) and human blood serum was described as (h).

Data set [3] shares this test system. The experiment in a line: Inhibitory activity on LPA production in human blood serum. The class given is biochemical. To be noted: human blood serum (h), 18:1 LPC, 3 hours at 37° C. The procedure:
as §1, §2

Data set [4] addresses human ATX (Homo sapiens (Human), UniProt Q13822). The experiment in a line: Bis-pNPP assay. The class given is biochemical. The following applies: bis-pNPP substrate, read-out: Enzymatic assay (IC50) bis-pNPP. The procedure:
Eight-fold dilution of each test compound solution (10 μM, 100% dimethyl sulfoxide) is carried out on 96-well V bottom plate (Costar 3363). After […] of each test compound solution (100% dimethyl sulfoxide) with deionized distilled water, 10 μL of the diluted each test compound solution (10% dimethyl sulfoxide) was aliquoted to a black flat bottom 96-well plate (Costar 3915). 50 μL of 60 mM Tris-HCl (pH9.0) buffer was added thereto, and subsequently 20 μL of 3.75 nM human ATX solution (buffer solution: 50 mM Tris-HCl (pH8.5), 5 mM CaCl2, 2.5 mM MgCl2, 0.01% Brij35) and 20 μL of 25 mM Bis-pNPP (bis(p-Nitrophenyl)-phosphate sodium salt) solution (buffer solution: 50 mM Tris-HCl (pH9.0)) were added thereto, respectively, followed by mixing. […] Furthermore, IC50 values that are shown in Table 3 were calculated using Grafit5 Software based on the inhibitory activity percentage ratio.

For data set [5], the system named is LPA production in mouse plasma. The experiment in a line: Ex-vivo assay (LPC assay) in mouse plasma. The class given is biochemical. The following applies: LPA 18:1. As to the method: After 100-fold dilution of each test compound solution (5 μL) (10 mM, 100%, dimethyl sulfoxide) with 495 μL of methanol, 3 μL of the diluted methanol solution (1% dimethyl sulfoxide) was mixed with 57 μL of human or mouse blood serum solution in a 1.5 mL tube. The mixed test compound solution was serially diluted, 12 μL for each, with 48 μL of 100% blood serum to have 5 different concentrations, and each tube was kept for 15 minutes in a water bath with constant temperature of 37° C. Subsequently, a solution prepared by diluting 10 mg/mL 18:1 LPC solution (50% ethanol) with blood serum to have concentration of 375 μg/mL was aliquoted in an amount of 2 μL to each tube so as to have 50 μL. Each tube was kept for 3 hours in a water bath at 37° C. to allow a reaction. To the tube obtained after the reaction, 100 μL of 0.5 μM 17:0 LPA solution (chloroform/methanol/water=65/35/8) was aliquoted and mixed therein. Centrifuge was carried out for 10 minutes using a centrifuge at conditions of 14,000 rpm and 4° C. 100 μL of 50% methanol solution is aliquoted first to a 96-well polypropylene plate (Agilent Technology 5042-1385), and the supernatant (50 μL) in a tube after the centrifuge was carefully transferred to the plate followed by mixing. After covering it with Well cap (Thermo 276011), analysis was carried out by LC-MS/MS (Agilent 1260).
The test was carried out in the same process as Test example 2 to obtain the IC50 values in the following table 4.

Data set [6] in a line: Microsomal stability, human liver microsomes. Format: in vitro ADME. The following applies: both sexes, pH 7.4; human liver microsomes (h), 0.5 mg/mL, NADPH regenerating system; read-out: MS (microsomal stability) t1/2. The procedure: (§3) A 2.5 mM stock solution of test compound in DMSO is diluted to 25 uM with 100 mM potassium phosphate buffer (pH 7.4) containing 5 mM EDTA. This solution was mixed with reaction mixtures (final concentration 1 μM). The incubation mixtures (final volume 700 μL) of test compound with liver microsomes [Xenotech; rat (male SD), human (mixed gender)] consisted of liver microsomes (0.5 mg/mL), substrate (Compound 4, […]), NADPH regenerating system (1.3 mM NADP+, 3.3 mM Glucose-6-phosphate, 3.3 mM MgCl2, 0.4 U/ml Glucose-6-phosphate dehydrogenase) in 81.3 mM potassium phosphate buffer (pH 7.4) containing 1 mM EDTA in duplicates. The reaction was initiated by addition of the NADPH regenerating system after preincubation at 37° C. for 10 min with test compounds. 100 uL of aliquot of the sample was removed at 0, 5, 10, 20, 30 and 60 min. The reaction was stopped by addition of 200 uL of acetonitrile containing internal standard (0.3 uM of Dextromethorphan). Each sample was mixed and centrifuged at 14000 rpm for 10 min. The resulting supernatant was analyzed by the LC-MS/MS method for determination of loss of parent compound. % parent remaining was calculated at 6 point time testing was done for T½ determination.
In general terms: Microsomes from liver hold many membrane-bound enzymes, among them those of drug oxidation.

A short description of data set [7]: Microsomal stability, rat liver microsomes. The class given is in vitro ADME. The following applies: male, SD, pH 7.4; rat liver microsomes (r), 0.5 mg/mL, NADPH regenerating system; read-out: MS (microsomal stability) t1/2. As to the method:
as §3

Setting [8] is: FS-3 assay, same process as Test example 1, read-out: Enzymatic assay (IC50) FS-3.

The term IC50 denotes the concentration that gives 50% inhibition. Turning to `O=C(Cc1nnc(-c2cnc(NC3CC=C(c4cccc(Cl)c4)CC3)nc2)o1)N1CCc2[nH]nnc2C1` (stereo not drawn) [Compound 35, 2-[5-(2-{[4-(3-chlorophenyl)cyclohex-3-en-1-yl]amino}pyrimidin-5-yl)-1,3,4-oxadiazol-2-yl]-1-{1H,4H,5H,6H,7H-[1,2,3]triazolo[4,5-c]pyridin-5-yl}ethan-1-one], the IC50 in data set [1] (human ENPP2, FS-3 substrate, 30 min at 37° C., read-out: IC50) was 2.4 nM; in data set [2], 46 nM; in data set [3], 99 nM.
`O=C(Cn1cc(-c2cnc(NC3Cc4ccccc4C3)nc2)c(-c2ccncc2)n1)N1CCc2[nH]nnc2C1` [Compound 96, 2-(4-{2-[(2,3-dihydro-1H-inden-2-yl)amino]pyrimidin-5-yl}-3-(pyridin-4-yl)-1H-pyrazol-1-yl)-1-{1H,4H,5H,6H,7H-[1,2,3]triazolo[4,5-c]pyridin-5-yl}ethan-1-one]: the IC50 in data set [1] (setting [8]) was 2.02 nM; in data set [4], under 1.56 nM; in data set [5], 3.65 nM. Further, the half-life at 1 µM in data set [6] was 22.2 min; in data set [7], 30 ± 1.57 min.
As for `O=C(Cn1cc(-c2cnc(NC3Cc4ccccc4C3)nc2)c(C2CCNCC2)n1)N1CCc2[nH]nnc2C1` [Compound 98, 2-(4-{2-[(2,3-dihydro-1H-inden-2-yl)amino]pyrimidin-5-yl}-3-(piperidin-4-yl)-1H-pyrazol-1-yl)-1-{1H,4H,5H,6H,7H-[1,2,3]triazolo[4,5-c]pyridin-5-yl}ethan-1-one], the concentration for half-maximal inhibition (IC50) is 9.39 nM in data set [1] (setting [8]) and under 1.56 nM in data set [4]. The half-life at 1 µM in data set [6] and in data set [7] was over 60 min in each case.
Turning to `O=C(Cn1cc(-c2cnc(NC3Cc4ccccc4C3)nc2)c(NC2CCC2)n1)N1CCc2[nH]nnc2C1` [Compound 100, 2-[3-(cyclobutylamino)-4-{2-[(2,3-dihydro-1H-inden-2-yl)amino]pyrimidin-5-yl}-1H-pyrazol-1-yl]-1-{1H,4H,5H,6H,7H-[1,2,3]triazolo[4,5-c]pyridin-5-yl}ethan-1-one], the 50% inhibitory concentration (IC50) came to 1.74 nM in data set [1] (setting [8]) and 3.6 nM in data set [4]. The values for the half-life at 1 µM in data set [6] and in data set [7] were 16.4 min and 10.3 ± 0.72 min, respectively.
The corresponding values for `CCN(CC)c1nn(CC(=O)N2CCc3[nH]nnc3C2)cc1-c1cnc(NC2Cc3ccccc3C2)nc1` [Compound 106, 2-[3-(diethylamino)-4-{2-[(2,3-dihydro-1H-inden-2-yl)amino]pyrimidin-5-yl}-1H-pyrazol-1-yl]-1-{1H,4H,5H,6H,7H-[1,2,3]triazolo[4,5-c]pyridin-5-yl}ethan-1-one] are 2.57 nM, 2.27 nM, 4.2 min and 3.9 ± 0.03 min.
Turning to `O=C(CO)N1CCN(C(=O)Cn2cc(-c3cnc(NC4Cc5ccccc5C4)nc3)c(-c3ccncc3)n2)CC1` [Compound 115, 1-{4-[2-(4-{2-[(2,3-dihydro-1H-inden-2-yl)amino]pyrimidin-5-yl}-3-(pyridin-4-yl)-1H-pyrazol-1-yl)acetyl]piperazin-1-yl}-2-hydroxyethan-1-one], the 50% inhibitory concentration (IC50) was 3.04 nM in data set [1] (setting [8]), 66.8 nM in data set [4] and 125 nM in data set [5]. Moreover, the half-life at 1 µM in data set [6] and in data set [7] was over 60 min each time.
As to `O=C(Cn1cc(-c2cnc(NC3Cc4ccccc4C3)nc2)c(-c2ccccn2)n1)N1CCc2[nH]nnc2C1` [Compound 116, 2-(4-{2-[(2,3-dihydro-1H-inden-2-yl)amino]pyrimidin-5-yl}-3-(pyridin-2-yl)-1H-pyrazol-1-yl)-1-{1H,4H,5H,6H,7H-[1,2,3]triazolo[4,5-c]pyridin-5-yl}ethan-1-one], the half-inhibitory concentration (IC50) in data set [1] (setting [8]) was under 1.56 nM; in data set [4], under 1.56 nM; in data set [5] it was 7.1 nM. Moreover, the half-life at 1 µM came to 33 min in data set [6] and 25.2 ± 0.69 min in data set [7].
